Data taken from EP3831363A1 (Solis Herrera, Arturo, priority 2019, dated 2021).
In brackets after ≈: the same amount, converted by molar mass.

Experiments:
human PBLs = details: human leukocytes, 48 hours, MTT
Protocol: (§4) Thereby, cell viability was determined on the basis of the mitochondria-dependent reduction of MTT (3-[4,5-dimethyltiazol 2yl]-2,5-diphenyltetrazolium bromide) to formazan. […] Next cells were treated with 20 µl of MTT. After 3 hours of incubation at 37°C, the formazan blue formed in the cells was dissolved in 100 µl of SDS (sodium dodecylsulfate) for 3 hours in 37°C. The optical density was measured at 570 nm.
(§5) After the cytotoxicity tests LC50 (LCso-lethal concentration, 50%-dose required to kill half of the cells after a specified test duration) were estimated for each cell lines and PBLs (leukocytes of peripheral blood). Additionally for PBLs LC10 and LC5 were calculated.

in vitro = details: human, peripheral blood leukocytes
Protocol: as §4, §5

IFN-γ production = tested on: IFN-γ production
Protocol: (§1) After 24 hours of incubation in 37°C/5%CO2 samples of leukocytes and supernatants were collected.
(§2) Cytokine levels were determined using ELISA kits (BD Biosciences, USA) for human IFNγ, TNF-α and IL-6 and DuoSet for human IL-3 (R&D Systems, USA) according to the producers' instructions. The optical density was measured at 450 nm using a Multiskan RC spectrophotometric reader (Thermo Labsystems, USA), Cytokine concentrations were expressed in pg/ml.

TNF-α production = tested on: TNF-α production
Protocol: as §1, §2

IL-6 production = tested on: IL-6 production
Protocol: as §1, §2

[1] = rats given 4,5 mg/kg of mercury (HgHCI); treatment of 0,0937 mg/ml; without treatment 6 in 8 rats died
H1N1 virus = details: H1N1 infected chicken, 0,002 mg/kg each 24 hours, 24 hours after treatment, versus control group
[2] = in vivo
Text: Thereby the healing process of a human ulcer is examined as a basic condition.

A549 cells = assay: cells; details: Homo sapiens, A549, 96 h
Protocol: (§3) Further, a proliferation test was prepared for the same three cell lines: WI-38, A549 and HS 683. 3x10^4 WI-38 cells and 2x10^4 A549 and HS 683. Cells were seeded into each wells in 96-well culture plates in appropriate culture medium with 10% FBS (fetal bovine serum). […] After 96 hours incubation in 37°C/5%CO2 MTT assay was performed for establishing the cell viability.

WI-38 cells = assay: cells; details: Homo sapiens, WI-38, 96 h
Protocol: as §3

HS-683 = assay: cells; details: Homo sapiens, Hs 683, 96 h
Protocol: as §3

[3] = read-out: concentration that inhibits 50% of the proliferation

CN1CCC[C@H]1c1cccnc1
LC5 (human PBLs): 0,5 mg/ml
LC10 (human PBLs): 1000 µg/mL (≈ 6.16 mM)
CC50 at 48 h (in vitro): 7000 µg/mL (≈ 43.1 mM)
effect on IFN-γ production (IFN-γ production): strongly decreases the level of interferon in a dose-dependent manner
effect on TNF-α production (TNF-α production): increases the level of cytokines in a dose-dependent manner
effect on IL-6 production (IL-6 production): no effect
mortality [1]: 0,625 of 8 rats
egg production (H1N1 virus): began to lay off eggs
healing effect on ulcer [2]: increased healing effect
IC50 (A549 cells; [3]): 2000 µg/mL (≈ 12.3 mM)
IC99 (A549 cells; read-out: concentration that inhibits 99% of the proliferation): 5500 µg/mL
IC50 (WI-38 cells; [3]): 1000 µg/mL (≈ 6.16 mM)
IC99 (WI-38 cells; read-out: concentration that inhibits a proliferation of 99%): 4500 µg/mL
IC99 (HS-683; read-out: concentration at which 99% of proliferation are inhibited): 5500 µg/mL
IC50 (HS-683; [3]): 2900 µg/mL (≈ 17.9 mM)
